For experiment [1], the target named is Mitogen-activated protein kinase 14 (Homo sapiens, UniProt Q16539). Nature of the experiment: In vitro inhibitory activity against Mitogen-activated protein kinase p38.
For experiment [2], the target named is T1, TGF-beta receptor type-1 (Homo sapiens, UniProt P36897).
T1 sequence (P36897 whole entry): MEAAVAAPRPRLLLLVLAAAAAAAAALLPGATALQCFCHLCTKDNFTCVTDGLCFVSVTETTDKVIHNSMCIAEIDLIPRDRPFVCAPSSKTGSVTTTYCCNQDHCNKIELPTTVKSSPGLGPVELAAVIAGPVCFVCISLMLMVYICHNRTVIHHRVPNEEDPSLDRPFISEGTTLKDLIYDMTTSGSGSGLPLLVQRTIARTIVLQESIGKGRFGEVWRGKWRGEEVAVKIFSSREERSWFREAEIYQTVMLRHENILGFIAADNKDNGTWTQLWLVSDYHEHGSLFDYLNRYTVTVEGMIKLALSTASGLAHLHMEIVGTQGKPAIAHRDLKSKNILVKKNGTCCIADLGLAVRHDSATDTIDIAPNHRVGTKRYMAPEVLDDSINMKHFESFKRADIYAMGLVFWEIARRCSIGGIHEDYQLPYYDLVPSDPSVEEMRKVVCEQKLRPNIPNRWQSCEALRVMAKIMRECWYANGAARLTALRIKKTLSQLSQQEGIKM
The experiment can be described thus: In vitro inhibition of transforming growth factor- beta dependent luciferase production in mink lung cells (p3TP Lux). The format is functional, cell-based.

Experiment [3] concerns the target T1, TGF-beta receptor type-1. The experiment can be described thus: In vitro inhibitory activity against human Transforming growth factor beta-1 receptor kinase (TGF-beta RIK).
The target in experiment [4] is T1, TGF-beta receptor type-1. Nature of the experiment: In vitro inhibition of transforming growth factor- beta dependent luciferase growth in mouse fibroblasts (NIH 3T3). The format is functional. The conditions noted are these: target entry is the homologue from another species.

Sequence of Mitogen-activated protein kinase 14 (Q16539 whole entry): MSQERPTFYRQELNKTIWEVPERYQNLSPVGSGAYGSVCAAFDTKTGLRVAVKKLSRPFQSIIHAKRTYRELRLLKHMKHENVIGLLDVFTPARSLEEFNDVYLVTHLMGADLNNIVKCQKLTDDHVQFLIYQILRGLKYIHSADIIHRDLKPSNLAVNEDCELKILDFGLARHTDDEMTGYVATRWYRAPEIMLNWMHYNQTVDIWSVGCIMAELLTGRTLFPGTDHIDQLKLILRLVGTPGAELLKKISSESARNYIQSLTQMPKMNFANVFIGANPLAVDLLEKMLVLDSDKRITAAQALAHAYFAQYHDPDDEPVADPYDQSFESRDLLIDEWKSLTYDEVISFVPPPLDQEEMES

Turning to `Cc1cccc(-c2n[nH]cc2-c2ccc(O)cc2)n1`, the IC50 (commonly the point on the concentration scale where inhibition reaches its midpoint) in experiment [1] turned out to be 0.56 µM; on TGF-beta receptor type-1 [2], 0.044 µM; against TGF-beta receptor type-1 [3] it was 0.031 µM; on TGF-beta receptor type-1 [4], 0.032 µM.

`Cc1cccc(-c2[nH]ncc2-c2ccc(Cl)cc2)n1`: the IC50 in experiment [1] was above 20 µM; at TGF-beta receptor type-1 [2], 0.551 µM; on TGF-beta receptor type-1 [3], 0.057 µM; against TGF-beta receptor type-1 [4] it was 0.421 µM.

As for `Cc1cccc(-c2n[nH]cc2-c2ccc(F)cc2)n1`, the IC50 was above 20 µM in experiment [1], 0.139 µM at TGF-beta receptor type-1 [2], 0.07 µM on TGF-beta receptor type-1 [3] and 0.041 µM against TGF-beta receptor type-1 [4].

In the case of `c1ccc(Cn2cc(-c3ccnc4ccccc34)c(-c3ccccn3)n2)cc1`, the IC50 in experiment [1] was found to be 0.51 µM; at TGF-beta receptor type-1 [2], 0.399 µM; at TGF-beta receptor type-1 [3] it was 0.369 µM; against TGF-beta receptor type-1 [4] it was 1.34 µM.

`c1ccc(-c2n[nH]cc2-c2ccnc3ccccc23)cc1`: the IC50 in experiment [1] stood at 0.025 µM; against TGF-beta receptor type-1 [2], 1.2 µM; against TGF-beta receptor type-1 [3], 0.382 µM; against TGF-beta receptor type-1 [4], 2.92 µM.

For the compound `Cc1cccc(-c2[nH]ncc2-c2ccc(F)c(F)c2)n1`, the concentration for half-maximal inhibition (IC50) in experiment [1] is above 20 µM; on TGF-beta receptor type-1 [2], 0.788 µM; at TGF-beta receptor type-1 [3], 0.151 µM; on TGF-beta receptor type-1 [4] it was 0.683 µM.

Consider `Cc1cccc(-c2n[nH]c(C)c2-c2ccnc3ccccc23)n1`, for which the 50% inhibitory concentration (IC50) in experiment [1] worked out at 0.25 µM; on TGF-beta receptor type-1 [2] it was 0.024 µM; against TGF-beta receptor type-1 [3], 0.082 µM; against TGF-beta receptor type-1 [4], 0.148 µM.

In the case of `c1ccc(-c2c[nH]nc2-c2ccccn2)cc1`, the IC50 was above 20 µM in experiment [1], above 9 µM at TGF-beta receptor type-1 [2], 3.99 µM against TGF-beta receptor type-1 [3] and 9.54 µM on TGF-beta receptor type-1 [4].

Take `Cc1cccc(-c2n[nH]cc2-c2ccccc2)n1`: the 50% inhibitory concentration (IC50) was above 20 µM in experiment [1], 3.37 µM against TGF-beta receptor type-1 [2], 0.543 µM at TGF-beta receptor type-1 [3] and 2.16 µM at TGF-beta receptor type-1 [4].

For the compound `Cc1cccc(-c2n[nH]cc2-c2ccnc3ccccc23)n1`, the IC50 in experiment [1] was 0.078 µM; against TGF-beta receptor type-1 [2] it was 0.0029 µM; on TGF-beta receptor type-1 [3] it was 0.034 µM; against TGF-beta receptor type-1 [4] it was 0.0071 µM.

For the compound `FC(F)(F)c1cccc(-c2n[nH]cc2-c2ccnc3ccccc23)c1`, the 50% inhibitory concentration (IC50) in experiment [1] is 0.0068 µM; against TGF-beta receptor type-1 [2], 0.355 µM; on TGF-beta receptor type-1 [3], 0.217 µM; against TGF-beta receptor type-1 [4], 0.524 µM.

Take `COc1ccc(-c2cn(C)nc2-c2cccc(C)n2)cc1`: the half-maximal inhibitory concentration (IC50) in experiment [1] was found to be 5.4 µM; at TGF-beta receptor type-1 [2], 0.047 µM; against TGF-beta receptor type-1 [3], 0.044 µM; at TGF-beta receptor type-1 [4], 0.061 µM.

With `c1csc(-c2n[nH]cc2-c2ccnc3ccccc23)c1`, the half-inhibitory concentration (IC50) in experiment [1] was 0.4 µM; against TGF-beta receptor type-1 [2] it was 1.66 µM; against TGF-beta receptor type-1 [3], 0.353 µM; at TGF-beta receptor type-1 [4], 2.81 µM.

`c1ccc(-c2n[nH]cc2-c2ccnc3ccccc23)nc1`: in experiment [1], the IC50 came to 0.74 µM.

On to `Fc1ccc(-c2c[nH]nc2-c2ccccn2)cc1`, for which the IC50 in experiment [1] was determined as 6.8 µM; against TGF-beta receptor type-1 [2], 3.53 µM; against TGF-beta receptor type-1 [3], 0.275 µM; against TGF-beta receptor type-1 [4] it was 2.59 µM.

With `c1ccc(-c2n[nH]c(C3CC3)c2-c2ccnc3ccccc23)nc1`, the IC50 in experiment [1] was found to be 0.28 µM; against TGF-beta receptor type-1 [2], 0.094 µM; against TGF-beta receptor type-1 [3], 0.203 µM; at TGF-beta receptor type-1 [4], 0.538 µM.

On to `c1ccc(-c2c[nH]nc2-c2ccnc3ccccc23)nc1`, for which the IC50 in experiment [1] amounted to 7.7 µM; against TGF-beta receptor type-1 [2] it was 0.683 µM; against TGF-beta receptor type-1 [3] it was 0.15 µM; on TGF-beta receptor type-1 [4], 1.68 µM.

`Fc1ccc(-c2n[nH]cc2-c2ccnc3ccccc23)nc1`: the IC50 in experiment [1] was found to be 1.3 µM; on TGF-beta receptor type-1 [2], 0.094 µM; at TGF-beta receptor type-1 [3], 0.091 µM; at TGF-beta receptor type-1 [4], 0.076 µM.

Take `Brc1cccc(-c2n[nH]cc2-c2ccnc3ccccc23)n1`: the IC50 in experiment [1] stood at 0.11 µM; on TGF-beta receptor type-1 [2], 0.0029 µM; on TGF-beta receptor type-1 [3] it was 0.031 µM; at TGF-beta receptor type-1 [4], 0.0012 µM.

For the compound `Clc1ccc(-c2n[nH]cc2-c2ccnc3ccccc23)nc1`, the half-maximal inhibitory concentration (IC50) in experiment [1] was 2.3 µM; against TGF-beta receptor type-1 [2], above 10 µM; against TGF-beta receptor type-1 [3] it was 1.76 µM; on TGF-beta receptor type-1 [4], 4.67 µM.

Values taken from ChEMBL document CHEMBL1145076, “Synthesis and activity of new aryl- and heteroaryl-substituted pyrazole inhibitors of the transforming growth factor-beta type I receptor kinase domain” (J Med Chem, 2003).
